Some test systems named below: COLO 205 colon; HOP-62 NSCLC; NCI/ADR-RES ovarian; OVCAR-4 ovarian; OVCAR-5 ovarian; RPMI-8226 leukemia; SF-268 CNS; SF-539 CNS; SNB-19 CNS; ACHN renal; DU-145 prostate; MDA-MB-231 breast; MDA-MB-435.
Common to all, as to experiment: inhibition of tumour cell growth, NCI panel, 48 h

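Growth conditions: 96-well plates. Treatment: test compound, 48 hours, 5 concentrations. Analysis: linear interpolation between bracketing concentrations; unreached endpoints set to highest concentration. TGI: total growth inhibition.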

For `CC(C)Cc1ccc(C(C)C(=O)N2CCN(/C=C/c3ccccc3)CC2)cc1` (centres undefined), the TGI came out at 29.5 µM in the assay on COLO 205 colon; 29.7 µM with HOP-62 NSCLC; 28.2 µM with NCI/ADR-RES ovarian; 25.6 µM in the assay with OVCAR-4 ovarian; 26.9 µM in the assay with OVCAR-5 ovarian; 25.6 µM in the assay with RPMI-8226 leukemia. Besides, the TGI in the assay on SF-268 CNS stood at 32 µM; with SF-539 CNS, 28.9 µM; in the assay on SNB-19 CNS, 22 µM.
In the case of `CC(=O)OC(OC(C)=O)c1ccc2ccc3cccc4ccc1c2c34`, the TGI with ACHN renal was 65.8 µM; in the assay on COLO 205 colon, 58.4 µM; with DU-145 prostate, 45.8 µM; in the assay on MDA-MB-231 breast it was 84.1 µM; in the assay with MDA-MB-435, 37.9 µM; in the assay with NCI/ADR-RES ovarian it was > 100 µM. Besides, the TGI in the assay with OVCAR-5 ovarian was 41.8 µM; with RPMI-8226 leukemia, > 100 µM; in the assay on SF-268 CNS, 91.7 µM; with SF-539 CNS it was > 100 µM; with SNB-19 CNS, 98.7 µM.
With `CO/N=C(\C(=O)OC(=NC1CCCCC1)NC1CCCCC1)c1csc(NC(c2ccccc2)(c2ccccc2)c2ccccc2)n1`, the TGI in the assay on ACHN renal, with COLO 205 colon, with DU-145 prostate, in the assay on HOP-62 NSCLC, with NCI/ADR-RES ovarian and with OVCAR-4 ovarian was > 10 µM in each case. Also, the TGI with OVCAR-5 ovarian, in the assay on RPMI-8226 leukemia, with SF-268 CNS, with SF-539 CNS and in the assay on SNB-19 CNS was > 10 µM each time.
With `CO/N=C(\C)c1ccc(Nc2nc3ccccc3c3occc23)cc1`, the TGI in the assay with ACHN renal worked out at 27.6 µM; with COLO 205 colon it was 28.1 µM; in the assay with DU-145 prostate it was 29.7 µM; in the assay on HOP-62 NSCLC, 29.5 µM; with MDA-MB-231 breast it was 25.9 µM; in the assay on MDA-MB-435, 31.1 µM. The TGI with NCI/ADR-RES ovarian is 32.1 µM; in the assay with OVCAR-5 ovarian, 31.5 µM; with RPMI-8226 leukemia it was 43.4 µM; in the assay on SF-268 CNS, 32.5 µM; in the assay on SF-539 CNS, 27.5 µM; with SNB-19 CNS, 31.2 µM.
On to `CCn1c(-c2ccccc2)cs/c1=N\C(P(=O)(O)O)P(=O)(O)O`, for which the TGI in the assay with ACHN renal, with COLO 205 colon, in the assay on DU-145 prostate, with HOP-62 NSCLC, in the assay on MDA-MB-231 breast and with MDA-MB-435 was > 100 µM in each case. The TGI in the assay with NCI/ADR-RES ovarian, in the assay on OVCAR-5 ovarian, in the assay on RPMI-8226 leukemia, with SF-268 CNS, in the assay with SF-539 CNS and in the assay with SNB-19 CNS was > 100 µM throughout.
For the compound `O=C1Nc2cccc(Cl)c2/C1=C\c1c(Cl)nc2n1CCS2`, the TGI in the assay with ACHN renal, in the assay on COLO 205 colon, in the assay on DU-145 prostate, in the assay on HOP-62 NSCLC, in the assay with MDA-MB-231 breast and with MDA-MB-435 was > 100 µM in each case. Also, the TGI in the assay with NCI/ADR-RES ovarian, in the assay with OVCAR-5 ovarian, in the assay on RPMI-8226 leukemia, with SF-268 CNS, in the assay with SF-539 CNS and in the assay with SNB-19 CNS was > 100 µM in each case.
With `O=C(O)CCCc1nc2c(n1Cc1ccccc1)C(=O)c1ccccc1C2=O`, the TGI with ACHN renal was > 100 µM; in the assay with COLO 205 colon, > 100 µM; in the assay on DU-145 prostate, > 100 µM; with MDA-MB-231 breast, > 100 µM; with NCI/ADR-RES ovarian, > 100 µM; in the assay with OVCAR-4 ovarian, 77.8 µM. The TGI in the assay on OVCAR-5 ovarian was > 100 µM; in the assay with RPMI-8226 leukemia it was 68.8 µM; in the assay with SF-268 CNS it was > 100 µM; in the assay on SF-539 CNS, > 100 µM; in the assay on SNB-19 CNS, > 100 µM.
`Cc1ccc(-c2c(C#N)c(-c3ccc(C)cc3)n(NS(=O)(=O)c3ccccc3)c(=O)c2C#N)cc1`: the TGI in the assay on ACHN renal, in the assay with COLO 205 colon, with HOP-62 NSCLC, with MDA-MB-231 breast, with MDA-MB-435 and with NCI/ADR-RES ovarian was > 100 µM each time. Further, the TGI is > 100 µM in the assay on OVCAR-4 ovarian; > 100 µM in the assay on OVCAR-5 ovarian; 38.8 µM with RPMI-8226 leukemia; > 100 µM in the assay with SF-268 CNS; 61.2 µM in the assay on SF-539 CNS; > 100 µM in the assay with SNB-19 CNS.
In the case of `COc1cc2c(cc1OC)C(CC1=C(c3ccccc3)CN3CCc4cc(OC)c(OC)cc4C3C1)NCC2` (centres undefined), the TGI came to 42.3 µM in the assay with ACHN renal; 31.4 µM in the assay with COLO 205 colon; 29.8 µM in the assay with OVCAR-4 ovarian; 35.4 µM with OVCAR-5 ovarian; 28.8 µM in the assay with RPMI-8226 leukemia; 37.5 µM with SF-268 CNS. In the assay on SNB-19 CNS, this compound came in with a TGI of 38.8 µM.
Regarding `C[n+]1c2ccc(Cl)cc2nc2cc(-c3ccccc3)ccc21`, the TGI with ACHN renal was 39.7 µM; in the assay with COLO 205 colon, 16 µM; in the assay on DU-145 prostate, 50.8 µM; in the assay on HOP-62 NSCLC, > 100 µM; in the assay with MDA-MB-231 breast it was 44 µM; in the assay on NCI/ADR-RES ovarian, > 100 µM. Moreover, the TGI is 40.5 µM in the assay with OVCAR-4 ovarian; 55.5 µM in the assay on OVCAR-5 ovarian; 35.5 µM in the assay on SF-268 CNS; 34 µM in the assay with SF-539 CNS; 9.59 µM in the assay on SNB-19 CNS.
Consider `O=C(N/N=C(\c1ccccc1)c1ccccn1)NC1CCCCC1`, for which the TGI in the assay on ACHN renal, with COLO 205 colon, with DU-145 prostate, in the assay with HOP-62 NSCLC, in the assay on MDA-MB-231 breast and in the assay with MDA-MB-435 was > 100 µM in each case. In addition, the TGI in the assay with OVCAR-4 ovarian, with OVCAR-5 ovarian, with RPMI-8226 leukemia, in the assay on SF-268 CNS and in the assay on SNB-19 CNS was > 100 µM throughout.
On to `CO[C@@]12C[C@@H](C)C3=CCC(C)=C3CC1=C(C)C(=O)O2`, for which the TGI with ACHN renal, in the assay with COLO 205 colon, in the assay on MDA-MB-231 breast, in the assay with MDA-MB-435, in the assay on NCI/ADR-RES ovarian and in the assay on OVCAR-4 ovarian was > 100 µM each time. Further, the TGI with OVCAR-5 ovarian, in the assay on RPMI-8226 leukemia, in the assay on SF-268 CNS and in the assay on SNB-19 CNS was > 100 µM throughout.

The record behind these values is PubChem BioAssay (NCI).
